Columns and labels:
Assay in all cases: relative viability (nuclei count vs DMSO), 5 days (fraction); higher = more cells survive
NCI-H2023 = system: NCI-H2023
Method in brief: (§1)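 Medians of duplicate plates are given as relative viability. That measure is the nuclei count in treated wells divided by the count in vehicle wells. Counts were taken on 4× images of lung cancer cell lines in 1536-well plates, 5 days after pin-tool dosing the day after seeding with one drug alone or a fixed anchor-drug dose plus five library-drug doses (not always all listed) in √10 steps.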

NCI-H2347 = system: NCI-H2347
Method in brief: as §1

NCI-H1563 = system: NCI-H1563
Method in brief: as §1

NCI-H1650 = system: NCI-H1650
Method in brief: as §1

NCI-H2009 = system: NCI-H2009
Method in brief: as §1

HOP-62 = system: HOP-62
Method in brief: as §1

NCI-H2085 = system: NCI-H2085
Method in brief: as §1

SW 1573 = system: SW 1573
Method in brief: as §1

SK-LU-1 = system: SK-LU-1
Method in brief: as §1

NCI-H322M = system: NCI-H322M
Method in brief: as §1

NCI-H647 = system: NCI-H647
Method in brief: as §1

PC-14 = system: PC-14
Method in brief: as §1

NCI-H1915 = system: NCI-H1915
Method in brief: as §1

EMC-BAC-2 = system: EMC-BAC-2
Method in brief: as §1

NCI-H2126 = system: NCI-H2126
Method in brief: as §1

H3255 = system: H3255
Method in brief: as §1

NCI-H1993 = system: NCI-H1993
Method in brief: as §1

NCI-H727 = system: NCI-H727
Method in brief: as §1

LCLC-97TM1 = system: LCLC-97TM1
Method in brief: as §1

EPLC-272H = system: EPLC-272H
Method in brief: as §1

LXF-289 = system: LXF-289
Method in brief: as §1

NCI-H661 = system: NCI-H661
Method in brief: as §1

CC1(C)CCC(c2ccc(Cl)cc2)=C(CN2CCN(c3ccc(C(=O)NS(=O)(=O)c4ccc(N[C@H](CCN5CCOCC5)CSc5ccccc5)c(S(=O)(=O)C(F)(F)F)c4)cc3)CC2)C1 [Navitoclax] + CS(=O)(=O)N1CCN(Cc2cc3nc(-c4cccc5[nH]ncc45)nc(N4CCOCC4)c3s2)CC1 [Pictilisib] (partner 1 µM)
relative viability (NCI-H2023; first compound 0.005 µM): 0.282 | relative viability (NCI-H2023; first compound 0.01581 µM): 0.248 | relative viability (NCI-H2023; first compound 0.05 µM): 0.22 | relative viability (NCI-H2023; first compound 0.1581 µM): 0.263 | relative viability (NCI-H2023; first compound 0.5 µM): 0.269 | relative viability (NCI-H2347; first compound 0.005 µM): 0.63 | relative viability (NCI-H2347; first compound 0.01581 µM): 0.702 | relative viability (NCI-H2347; first compound 0.05 µM): 0.649 | relative viability (NCI-H2347; first compound 0.1581 µM): 0.395 | relative viability (NCI-H2347; first compound 0.5 µM): 0.734 | relative viability (NCI-H1563; first compound 0.005 µM): 0.603 | relative viability (NCI-H1563; first compound 0.01581 µM): 0.667 | relative viability (NCI-H1563; first compound 0.05 µM): 0.577 | relative viability (NCI-H1563; first compound 0.1581 µM): 0.583 | relative viability (NCI-H1563; first compound 0.5 µM): 0.693 | relative viability (NCI-H1650; first compound 0.005 µM): 0.541 | relative viability (NCI-H1650; first compound 0.01581 µM): 0.737 | relative viability (NCI-H1650; first compound 0.05 µM): 0.656 | relative viability (NCI-H1650; first compound 0.1581 µM): 0.623 | relative viability (NCI-H1650; first compound 0.5 µM): 0.394 | relative viability (NCI-H2009; first compound 0.005 µM): 0.771 | relative viability (NCI-H2009; first compound 0.01581 µM): 1.09 | relative viability (NCI-H2009; first compound 0.05 µM): 0.961 | relative viability (NCI-H2009; first compound 0.1581 µM): 0.898 | relative viability (NCI-H2009; first compound 0.5 µM): 0.979 | relative viability (HOP-62; first compound 0.005 µM): 0.803 | relative viability (HOP-62; first compound 0.01581 µM): 0.921 | relative viability (HOP-62; first compound 0.05 µM): 0.5 | relative viability (HOP-62; first compound 0.1581 µM): 0.769 | relative viability (HOP-62; first compound 0.5 µM): 1.17 | relative viability (NCI-H2085; first compound 0.005 µM): 0.449 | relative viability (NCI-H2085; first compound 0.01581 µM): 0.49 | relative viability (NCI-H2085; first compound 0.05 µM): 0.475 | relative viability (NCI-H2085; first compound 0.1581 µM): 0.507 | relative viability (NCI-H2085; first compound 0.5 µM): 0.596 | relative viability (SW 1573; first compound 0.005 µM): 0.466 | relative viability (SW 1573; first compound 0.01581 µM): 0.54 | relative viability (SW 1573; first compound 0.05 µM): 0.464 | relative viability (SW 1573; first compound 0.1581 µM): 0.389 | relative viability (SW 1573; first compound 0.5 µM): 0.503 | relative viability (SK-LU-1; first compound 0.005 µM): 0.557 | relative viability (SK-LU-1; first compound 0.01581 µM): 0.725 | relative viability (SK-LU-1; first compound 0.05 µM): 0.499 | relative viability (SK-LU-1; first compound 0.1581 µM): 0.522 | relative viability (SK-LU-1; first compound 0.5 µM): 0.483 | relative viability (NCI-H322M; first compound 0.005 µM): 0.485 | relative viability (NCI-H322M; first compound 0.01581 µM): 0.526 | relative viability (NCI-H322M; first compound 0.05 µM): 0.565 | relative viability (NCI-H322M; first compound 0.1581 µM): 0.516 | relative viability (NCI-H322M; first compound 0.5 µM): 0.562 | relative viability (NCI-H647; first compound 0.005 µM): 0.539 | relative viability (NCI-H647; first compound 0.01581 µM): 0.396 | relative viability (NCI-H647; first compound 0.05 µM): 0.385 | relative viability (NCI-H647; first compound 0.1581 µM): 0.422 | relative viability (NCI-H647; first compound 0.5 µM): 0.453 | relative viability (PC-14; first compound 0.005 µM): 0.648 | relative viability (PC-14; first compound 0.01581 µM): 0.956 | relative viability (PC-14; first compound 0.05 µM): 0.746 | relative viability (PC-14; first compound 0.1581 µM): 0.748 | relative viability (PC-14; first compound 0.5 µM): 0.68 | relative viability (NCI-H1915; first compound 0.005 µM): 0.893 | relative viability (NCI-H1915; first compound 0.01581 µM): 1.02 | relative viability (NCI-H1915; first compound 0.05 µM): 1.01 | relative viability (NCI-H1915; first compound 0.1581 µM): 0.933 | relative viability (NCI-H1915; first compound 0.5 µM): 0.902 | relative viability (EMC-BAC-2; first compound 0.005 µM): 0.506 | relative viability (EMC-BAC-2; first compound 0.01581 µM): 0.646 | relative viability (EMC-BAC-2; first compound 0.05 µM): 0.565 | relative viability (EMC-BAC-2; first compound 0.1581 µM): 0.548 | relative viability (EMC-BAC-2; first compound 0.5 µM): 0.6 | relative viability (NCI-H2126; first compound 0.005 µM): 0.529 | relative viability (NCI-H2126; first compound 0.01581 µM): 0.507 | relative viability (NCI-H2126; first compound 0.05 µM): 0.493 | relative viability (NCI-H2126; first compound 0.1581 µM): 0.49 | relative viability (NCI-H2126; first compound 0.5 µM): 0.451 | relative viability (H3255; first compound 0.005 µM): 0.524 | relative viability (H3255; first compound 0.01581 µM): 0.528 | relative viability (H3255; first compound 0.05 µM): 0.549 | relative viability (H3255; first compound 0.1581 µM): 0.45 | relative viability (H3255; first compound 0.5 µM): 0.461 | relative viability (NCI-H1993; first compound 0.005 µM): 0.808 | relative viability (NCI-H1993; first compound 0.01581 µM): 0.853 | relative viability (NCI-H1993; first compound 0.05 µM): 0.803 | relative viability (NCI-H1993; first compound 0.1581 µM): 0.792 | relative viability (NCI-H1993; first compound 0.5 µM): 0.925 | relative viability (NCI-H727; first compound 0.005 µM): 0.398 | relative viability (NCI-H727; first compound 0.01581 µM): 0.423 | relative viability (NCI-H727; first compound 0.1581 µM): 0.33 | relative viability (NCI-H727; first compound 0.5 µM): 0.171 | relative viability (LCLC-97TM1; first compound 0.005 µM): 0.255 | relative viability (LCLC-97TM1; first compound 0.01581 µM): 0.146 | relative viability (LCLC-97TM1; first compound 0.05 µM): 0.193 | relative viability (LCLC-97TM1; first compound 0.1581 µM): 0.187 | relative viability (LCLC-97TM1; first compound 0.5 µM): 0.153 | relative viability (EPLC-272H; first compound 0.005 µM): 0.321 | relative viability (EPLC-272H; first compound 0.1581 µM): 0.325 | relative viability (EPLC-272H; first compound 0.5 µM): 0.306 | relative viability (LXF-289; first compound 0.005 µM): 0.821 | relative viability (LXF-289; first compound 0.01581 µM): 0.872 | relative viability (LXF-289; first compound 0.05 µM): 0.737 | relative viability (LXF-289; first compound 0.1581 µM): 0.799 | relative viability (LXF-289; first compound 0.5 µM): 0.768 | relative viability (NCI-H661; first compound 0.005 µM): 0.48 | relative viability (NCI-H661; first compound 0.01581 µM): 0.443 | relative viability (NCI-H661; first compound 0.05 µM): 0.379 | relative viability (NCI-H661; first compound 0.1581 µM): 0.406 | relative viability (NCI-H661; first compound 0.5 µM): 0.465

From the supplement of paper PMC10307832
